System: A498
Experiment: Inhibitory dose required against A498 human tumor cell lines
Type: functional
Settings: read-out: ID50 (the source's name)

Row | SMILES | IC50 [µg/mL]
1 | CC[C@@]1(OC(=O)OCc2ccc(NC(=O)[C@H](CCCCN)NC(=O)[C@H](Cc3ccccc3)NC(=O)[C@@H](C)N)cc2)C(=O)OCc2c1cc1n(c2=O)Cc2cc3c(N)cccc3nc2-1.Cl.Cl.Cl | 0.039
2 | CC[C@@]1(OC(=O)OCc2ccc(NC(=O)[C@H](CCCCN)NC(=O)[C@H](Cc3ccccc3)NC(=O)[C@@H](C)N)cc2)C(=O)OCc2c1cc1n(c2=O)Cc2cc3ccccc3nc2-1.Cl.Cl | 0.022
3 | CC[C@@]1(O)C(=O)OCc2c1cc1n(c2=O)Cc2cc3c(N)cccc3nc2-1 [9-AMINOCAMPTOTHECIN] | < 0.01
4 | CC[C@@]1(O)C(=O)OCc2c1cc1n(c2=O)Cc2cc3ccccc3nc2-1 [CAMPTOTHECIN] | < 0.0032

System: EVSA-T
Experiment: Inhibitory dose required against EVSA-T human tumor cell lines
Type: functional
Settings: read-out: ID50 (the source's name)

Row | SMILES | IC50 [µg/mL]
5 | CC[C@@]1(OC(=O)OCc2ccc(NC(=O)[C@H](CCCCN)NC(=O)[C@H](Cc3ccccc3)NC(=O)[C@@H](C)N)cc2)C(=O)OCc2c1cc1n(c2=O)Cc2cc3c(N)cccc3nc2-1.Cl.Cl.Cl | 0.137
6 | CC[C@@]1(OC(=O)OCc2ccc(NC(=O)[C@H](CCCCN)NC(=O)[C@H](Cc3ccccc3)NC(=O)[C@@H](C)N)cc2)C(=O)OCc2c1cc1n(c2=O)Cc2cc3ccccc3nc2-1.Cl.Cl | 0.049
7 | CC[C@@]1(O)C(=O)OCc2c1cc1n(c2=O)Cc2cc3c(N)cccc3nc2-1 [9-AMINOCAMPTOTHECIN] | < 0.0032
8 | CC[C@@]1(O)C(=O)OCc2c1cc1n(c2=O)Cc2cc3ccccc3nc2-1 [CAMPTOTHECIN] | < 0.0032

System: NCI-H226
Experiment: Inhibitory dose required against H226 human tumor cell lines
Type: functional
Settings: read-out: ID50 (the source's name)

Row | SMILES | IC50 [µg/mL]
9 | CC[C@@]1(OC(=O)OCc2ccc(NC(=O)[C@H](CCCCN)NC(=O)[C@H](Cc3ccccc3)NC(=O)[C@@H](C)N)cc2)C(=O)OCc2c1cc1n(c2=O)Cc2cc3c(N)cccc3nc2-1.Cl.Cl.Cl | 0.021
10 | CC[C@@]1(OC(=O)OCc2ccc(NC(=O)[C@H](CCCCN)NC(=O)[C@H](Cc3ccccc3)NC(=O)[C@@H](C)N)cc2)C(=O)OCc2c1cc1n(c2=O)Cc2cc3ccccc3nc2-1.Cl.Cl | 0.111
11 | CC[C@@]1(O)C(=O)OCc2c1cc1n(c2=O)Cc2cc3c(N)cccc3nc2-1 [9-AMINOCAMPTOTHECIN] | < 0.007
12 | CC[C@@]1(O)C(=O)OCc2c1cc1n(c2=O)Cc2cc3ccccc3nc2-1 [CAMPTOTHECIN] | < 0.005

System: IGROV-1
Experiment: Inhibitory dose required against IGROV human tumor cell lines
Type: functional
Settings: read-out: ID50 (the source's name)

Row | SMILES | IC50 [ng/mL]
13 | CC[C@@]1(OC(=O)OCc2ccc(NC(=O)[C@H](CCCCN)NC(=O)[C@H](Cc3ccccc3)NC(=O)[C@@H](C)N)cc2)C(=O)OCc2c1cc1n(c2=O)Cc2cc3c(N)cccc3nc2-1.Cl.Cl.Cl | 8
14 | CC[C@@]1(OC(=O)OCc2ccc(NC(=O)[C@H](CCCCN)NC(=O)[C@H](Cc3ccccc3)NC(=O)[C@@H](C)N)cc2)C(=O)OCc2c1cc1n(c2=O)Cc2cc3ccccc3nc2-1.Cl.Cl | 20
15 | CC[C@@]1(O)C(=O)OCc2c1cc1n(c2=O)Cc2cc3c(N)cccc3nc2-1 [9-AMINOCAMPTOTHECIN] | < 3.2
16 | CC[C@@]1(O)C(=O)OCc2c1cc1n(c2=O)Cc2cc3ccccc3nc2-1 [CAMPTOTHECIN] | < 3.2

System: M19-MEL
Experiment: Inhibitory dose required against M19 human tumor cell lines
Type: functional
Settings: read-out: ID50 (the source's name)

Row | SMILES | IC50 [µg/mL]
17 | CC[C@@]1(OC(=O)OCc2ccc(NC(=O)[C@H](CCCCN)NC(=O)[C@H](Cc3ccccc3)NC(=O)[C@@H](C)N)cc2)C(=O)OCc2c1cc1n(c2=O)Cc2cc3c(N)cccc3nc2-1.Cl.Cl.Cl | 0.01
18 | CC[C@@]1(OC(=O)OCc2ccc(NC(=O)[C@H](CCCCN)NC(=O)[C@H](Cc3ccccc3)NC(=O)[C@@H](C)N)cc2)C(=O)OCc2c1cc1n(c2=O)Cc2cc3ccccc3nc2-1.Cl.Cl | 0.219
19 | CC[C@@]1(O)C(=O)OCc2c1cc1n(c2=O)Cc2cc3c(N)cccc3nc2-1 [9-AMINOCAMPTOTHECIN] | < 0.024
20 | CC[C@@]1(O)C(=O)OCc2c1cc1n(c2=O)Cc2cc3ccccc3nc2-1 [CAMPTOTHECIN] | < 0.013

System: MCF7
Experiment: Inhibitory dose required against MCF-7 human tumor cell lines
Type: functional
Settings: read-out: ID50 (the source's name)

Row | SMILES | IC50 [µg/mL]
21 | CC[C@@]1(OC(=O)OCc2ccc(NC(=O)[C@H](CCCCN)NC(=O)[C@H](Cc3ccccc3)NC(=O)[C@@H](C)N)cc2)C(=O)OCc2c1cc1n(c2=O)Cc2cc3c(N)cccc3nc2-1.Cl.Cl.Cl | 0.019
22 | CC[C@@]1(OC(=O)OCc2ccc(NC(=O)[C@H](CCCCN)NC(=O)[C@H](Cc3ccccc3)NC(=O)[C@@H](C)N)cc2)C(=O)OCc2c1cc1n(c2=O)Cc2cc3ccccc3nc2-1.Cl.Cl | 0.01
23 | CC[C@@]1(O)C(=O)OCc2c1cc1n(c2=O)Cc2cc3c(N)cccc3nc2-1 [9-AMINOCAMPTOTHECIN] | < 0.0032
24 | CC[C@@]1(O)C(=O)OCc2c1cc1n(c2=O)Cc2cc3ccccc3nc2-1 [CAMPTOTHECIN] | < 0.0032

System: WiDr
Experiment: Inhibitory dose required against WIDR human tumor cell lines
Type: functional
Settings: read-out: ID50 (the source's name)

Row | SMILES | IC50 [ng/mL]
25 | CC[C@@]1(OC(=O)OCc2ccc(NC(=O)[C@H](CCCCN)NC(=O)[C@H](Cc3ccccc3)NC(=O)[C@@H](C)N)cc2)C(=O)OCc2c1cc1n(c2=O)Cc2cc3c(N)cccc3nc2-1.Cl.Cl.Cl | 7
26 | CC[C@@]1(OC(=O)OCc2ccc(NC(=O)[C@H](CCCCN)NC(=O)[C@H](Cc3ccccc3)NC(=O)[C@@H](C)N)cc2)C(=O)OCc2c1cc1n(c2=O)Cc2cc3ccccc3nc2-1.Cl.Cl | 22
27 | CC[C@@]1(O)C(=O)OCc2c1cc1n(c2=O)Cc2cc3c(N)cccc3nc2-1 [9-AMINOCAMPTOTHECIN] | < 3.2
28 | CC[C@@]1(O)C(=O)OCc2c1cc1n(c2=O)Cc2cc3ccccc3nc2-1 [CAMPTOTHECIN] | < 3.2

Reference: ChEMBL document CHEMBL1134893, “Novel 20-carbonate linked prodrugs of camptothecin and 9-aminocamptothecin designed for activation by tumour-associated plasmin” (2002)
